Assay results: patent US5770688A, “Method and composition for the treatment of mammalian HIV infection” (GSF-Forschungszentrum fur Umwelt und Gesundheit GmbH, priority 1989, dated 1998)

Columns and labels:
P24 = P24 production in melittin treated HIV infected cultures; type: cell-based
Excerpt: This means, in essence, that the effect of melittin (Seq. ID NO:1) on the virus is to attack the virus before it is released from an infected cell although it is possible that a reduction in virus numbers may be possible during and immediately after the addition of melittin to a cell culture or otherwise. […] At this point in time, melittin is absent from the culture. […] This observation excludes any effect in the experiments to be explained by a direct effect of melittin on "cell free" virus, that is, virus released into the supernatant.
These characteristics appear to be due to the specific structure of the melittin amphiphilic helix. […] In this regard, treatment was at cultivation start, and measurement of infectivity was seven days post treatment. As was discussed earlier, maximum virus concentration in cultures of this type is not achieved for five days after cultivation. As should be understood and the conclusions which the inventors have drawn from same is that if the reduced viral infectivity seven days post treatment were only due to direct effects of melittin on the virus, then in that event, the melittin or an active fragment would have to be present as late as five days post treatment. […] Moreover, and if the reduction and supernatant infectivity was partly due to reduced virus production as opposed to incorrect virus assembly or destruction of newly synthesized virion, then, in that event, this should be reflected by reduced amounts of viral proteins within the cells and/or in their supernatants of the melittin treated cultures. To determine whether this hypothesis is correct the inventors chose the P24 marker as a marker for viral protein production. […] However, following fourteen hours of incubation with melittin, there is a marked reduction of P24 within the cells as well as in the supernatant (down to 60%).

HIV = assay: relative infectious nature of culture supernatant, indirect immunoperoxidase staining of LC5 cells; type: cell-based
Method: Referring more particularly to FIGS. 1-4, melittin (Seq. ID NO:1) and its specified analogues were tested for their effect on HIV-infected T-lymphoma cells. In this regard the following cell lines were employed in the testing: KE37-1 (uninfected) and KE37-1/111S (infected with HTLV-111β). These infected cells were incubated for a period of seven days under test conditions at a temperature of 37° C. and in the presence of 5% CO2. A culture medium of RPMI 1640 (GIBCO) was employed and was further supplemented with 10% fetal calf serum which contained approximately 100 units of penicillin, 100μ of streptomycin, and approximately 0.25μ fungizone (Amphotericin B) per milliliter. […] A first test was conducted for purposes of determining the relative cell concentration as a function of the number of HIV infected cells present by employing an MTT test. The MTT test was carried out in microtiter plates according to T. Mosmann, "Rapid Colorimetric Assay for Cellular Growth and Survival: Application to Proliferation and Cytotoxicity Assays," Journal of Immunological Methods, v. 65 (1983), pp. 55-63. The MTT test was slightly modified: 10 μl of an MTT solution (5 mg/ml MTT dissolved in PBS, sterilized by filtration; MTT is 3-(4,5-Dimethylthiazole-2-yl)-2,5-diphenyltetrazolimbromide) were added to every well. […] The optical density (OD) of the solution was determined at=600 nm. […]

For “Gly-Ile-Gly-Ala-Val-Leu-Lys-Val-Leu-Thr-Thr-Gly-Leu-Pro-Ala-Leu-Ile-Ser-Trp-Ile-Lys-Arg-Lys-Arg-Gln-Gln-Amide [melittin]”, the “cellular vs supernatant P24 reduction” value (P24) was “cellular P24 seems to be reduced sooner and more strongly than supernatant P24”, the “P24 within the cells as well as in the supernatant” value (P24; fourteen hours of incubation, down to, 840 min) was 60% and the “reduction of cellular and supernatant P24” value (P24; three hours of incubation) was “only a slight reduction”. For the same substance, the “virus protein synthesis (P24 formation within the cell)” value (P24; totally infected (clone) cultures) was “virus protein synthesis is reduced”, the “ability of the cells to infect (INF%)” value (HIV; 2.5 μg per ml, FIG. 2) was “revert substantially back to zero” and the supernatant infectivity (HIV; single treatment at cultivation start, subtoxic concentrations, seven days post treatment) was “supernatant infectivity was reduced”.
